The values below come from patent US4000297A, “N-p-chlorobenzoyl tryptophane, salts and compositions thereof” (priority 1971, dated 1976).

Series [1] concerns transit through the stomach and intestine. Put plainly: Anti-spastic activity, vegetable carbon (charcoal) test, rate of transit through the stomach and intestine. Format: in vivo, mice. Particulars: for ED50: Mus musculus, 2 h; for Antispastic activity ED50: 120 min; for Ratio 3/2: anti-secretive ED50 / anti-spastic ED50 (Table 3). The protocol:
Particularly marked is the anti-spastic activity which the present compounds exercise on the entire digestive system. Measured in the mouse, using the vegetable carbon test (rate of transit through the stomach and intestine), this activity is in some cases comparatively greater than the anti-secretive activity (Table 3).
(*)The antispastic activity is measured in mice of an average weight of […]
± 3 g by administering a suspension of charcoal in gum arabic and
checking after two hours whether the charcoal has reached the initial
portion of the colon. In non-treated subjects the charcoal reaches this
transit of the charcoal. Evaluation of the results is effected as
ED50 in mg/kg body weight of the animal, i.e., the dose at which the […]

The next series in a line: Solubility. The format is physicochemical. The note with it: for Solubility in water: in words.
For series [2], the system named is gastric lesions from Indomethacin. The experiment in a line: Protective activity against gastric lesions due to Indomethacin. The format is in vivo, rats. The note with it: for ED50: Rattus norvegicus, po, 4 h, read-out: Protective activity ED50; for Protective activity ED50: 240 min. The protocol: The activity is defined as the dose in mg/kg of body weight to the animal, which prevents in 50% of the treated subjects arising of lesions due to Indomenthacin.
The protective preparations are administered orally in aqueous suspension.

Series [3] relates to gastric secretion. Put plainly: Comparison of antisecretive activity, rats with tied pylorus, oral aqueous suspension. Format: in vivo. Particulars: for ED50: Rattus norvegicus, po, read-out: Antisecretive activity (dose which reduces the gastric secretion by 50%). The protocol: (*)The antisecretive activity is defined as the dose in mg/kg of body
weight of the animal, which reduces the gastric secretion by 50%. The
evaluation is effected by considering the decrease in quantity of secrete
gastric juice as compared with controls. Rats of an average weight of 200
± 20 grams are employed of which the lower part of the stomach at the
level of the pylorus is tied to collect the gastric juice during the
indicated periods. The preparations are administered orally in the form o

A short description of series [4]: Acute toxicity (DL50) in the mouse. Format: in vivo. Particulars: in vivo. From the text:
*1 DL50 in the mouse mg/kg iv.
Examples of differences between toxicity (DL50 in
the mouse) by intravenous administration and oral
administration in mg/kg. Variation in therapeutic

The test system of series [5] is gastric secretion. The experiment in a line: Anti-secretive activity, oral (comparison of iv and oral therapeutic coefficient). Particulars: oral (Table 2). Format: in vivo. From the text:
| *6 Anti-secretive activity ED50 oral | *7 Therapeutic coefficient oral

Series [6] concerns gastric secretion. The experiment in a line: Anti-secretive activity in the rat by gastric stimulus, oral. Format: in vivo. The note with it: oral (Table 1), read-out: Activity B: anti-secretive activity ED50.
Procedure: *3 Anti-secretive activity in the rat by gastric stimulus, ED50 mg/k
Series [7] concerns gastric secretion. Put plainly: Anti-secretive activity in the rat with lig. pylorus, iv. The format is in vivo. Particulars: for Therapeutic coefficient iv. 2/3: DL50 iv / ED50 iv (Table 2).
Setting [8] is: charcoal after two hours, orally (later Table 3).
The mark [9] stands for this setting: oral, Indomethacin 16 mg/kg orally.
[10] abbreviates: po, charcoal after two hours, orally (later Table 3), read-out: Antispastic activity ED50.
Where [11] appears, read: Rattus norvegicus, iv, read-out: Activity A: anti-secretive activity ED50.
Setting [12] is: Rattus norvegicus, iv, read-out: Anti-secretive activity ED50 i.v.
The mark [13] stands for this setting: iv, iv (Table 1), read-out: DL50 value.
Setting [14] is: mouse, vegetable carbon test (Table 3), read-out: Anti-spastic activity ED50.
[15] abbreviates: Rattus norvegicus, iv, read-out: Anti-secretive activity ED50.

Structures can show the parent of a compound that is named as a salt. Where two headings read alike, the source gives them in different places.

Usually solubility stands for how much of the substance goes into solution per volume. Low readings indicate a poorly soluble substance, high ones a readily soluble substance. `O=C(N[C@@H](Cc1c[nH]c2ccccc12)C(=O)[O-])c1ccc(Cl)cc1.[Na+]`: the ED50 in series [1] (ip, read-out: Antispastic activity ED50) was 82 mg/kg; in series [1] (po, read-out: Antispastic activity ED50), 192 mg/kg; in series [2], 210 mg/kg; in the series on gastric secretion [3] (2.5 h), 118 mg/kg; in the series with gastric secretion [3] (5 h), 141 mg/kg; in the series on gastric secretion [3] (10 h), 147 mg/kg. The ED50 with gastric secretion [3] (15 h) is 410 mg/kg. In the series “Solubility” (acetone), the Solubility in acetone result was “Highly soluble”. In addition, the Solubility in ethanol result in the series “Solubility” is listed as “Highly soluble”. The Solubility in methanol entry in the series “Solubility” was “Highly soluble”. This compound came in with a solubility in “Solubility” (water) of approximately 50 mg/mL.

Consider `O=C(N[C@@H](Cc1c[nH]c2ccccc12)C(=O)O)OCc1ccc(Cl)cc1` [CR 449 calcium salt, N-p-chloro-carbobenzoxy-L-tryptophane calcium salt], for which the Solubility in ethanol entry in the series “Solubility” is on record as “soluble”. In the series “Solubility”, the Solubility in methanol result was “soluble”. The Solubility in water entry in the series “Solubility” (water) is reported as “Very slightly soluble”. Also, in series [2] (oral, Indomethacin 16 mg/kg orally, calcium salt), the “Protective activity ED50” value is recorded as 121 mg/kg/os. For the same compound, the “Antisecretive activity (dose which reduces the gastric secretion by 50%)” value worked out at 142 mg/kg in the series with gastric secretion [3] (oral, 2.5 hrs, calcium salt, 150 min); 112 mg/kg with gastric secretion [3] (oral, 5 hrs, calcium salt, 300 min); 110 mg/kg in the series with gastric secretion [3] (oral, 10 hrs, calcium salt, 600 min); 106 mg/kg in the series on gastric secretion [3] (oral, 15 hrs, calcium salt, 900 min).

Turning to `O=C(N[C@@H](Cc1c[nH]c2ccccc12)C(=O)O)c1ccc(Cl)cc1` [CR 501 aluminium salt, N-p-chloro-benzoyl-L-tryptophane aluminium salt], the “Antispastic activity ED50” value in series [1] (setting [8]) turned out to be 270 mg/kg. For the same compound, the Solubility in ethanol result in the series “Solubility” (listed as Example 56) is on record as “Soluble”. The Solubility in methanol result in “Solubility” (listed as Example 56) is recorded as “Soluble”. Also, the Solubility in water result in “Solubility” (water, listed as Example 56) is “very slightly soluble”. For the same compound, the “Protective activity ED50” value in series [2] (setting [9]) is recorded as 174 mg/kg/os. For the same compound, the “Antisecretive activity (dose which reduces the gastric secretion by 50%)” value is listed as 195 mg/kg in the series with gastric secretion [3] (oral, 2.5 hrs, 150 min); 152 mg/kg in the series on gastric secretion [3] (oral, 5 hrs, 300 min); 150 mg/kg in the series on gastric secretion [3] (oral, 10 hrs, 600 min); 163 mg/kg with gastric secretion [3] (oral, 15 hrs, 900 min).

As to `O=C(N[C@@H](Cc1c[nH]c2ccccc12)C(=O)O)c1ccc(Cl)cc1` [CR 501 magnesium salt, N-p-chloro-benzoyl-L-tryptophane magnesium salt], the “Antispastic activity ED50” value in series [1] (setting [8]) turned out to be 278 mg/kg. Further, the Solubility in ethanol entry in the series “Solubility” (listed as Example 55) is on record as “soluble”. The Solubility in methanol entry in the series “Solubility” (listed as Example 55) is given as “soluble”. Moreover, the Solubility in water entry in the series “Solubility” (water, listed as Example 55) is “Very slightly soluble”. For the same compound, the “Protective activity ED50” value in series [2] (setting [9]) is on record as 162 mg/kg/os. The “Antisecretive activity (dose which reduces the gastric secretion by 50%)” value in the series on gastric secretion [3] (oral, 2.5 hrs, 150 min) is 230 mg/kg; in the series with gastric secretion [3] (oral, 5 hrs, 300 min), 180 mg/kg; in the series with gastric secretion [3] (oral, 10 hrs, 600 min), 146 mg/kg; in the series on gastric secretion [3] (oral, 15 hrs, 900 min) it was 135 mg/kg.

In the case of `Cc1ccc(C(=O)N[C@@H](Cc2c[nH]c3ccccc23)C(=O)O)cc1` [Ex.21 (CR510), N-p-toluyl-L-tryptophane], the ED50 in series [1] (setting [10]) was 487 mg/kg; in series [2] (setting [9]), 382 mg/kg; in the series with gastric secretion [3] (2.5 h, oral, 2.5 hrs) it was 490 mg/kg; in the series with gastric secretion [3] (5 h, oral, 5 hrs), 407 mg/kg; with gastric secretion [3] (10 h, oral, 10 hrs), 346 mg/kg; in the series on gastric secretion [3] (15 h, oral, 15 hrs), 583 mg/kg. In addition, the ED50 in the series with gastric secretion [5] amounted to 346 mg/kg; in the series on gastric secretion [6] it was 318 mg/kg; in the series with gastric secretion [7] (setting [11]), 184 mg/kg; in the series on gastric secretion [7] (setting [12]), 184 mg/kg. For the same compound, the LD50 in series [4] (iv (Table 1), read-out: DL50 value) worked out at 700 mg/kg; in series [4] (oral (Table 2), read-out: DL50 oral) it was 2000 mg/kg. In addition, the Therapeutic coefficient oral in the series with gastric secretion [5] is listed as 5.8. Also, the “Therapeutic coefficient iv. 2/3” value in the series with gastric secretion [7] (iv) was determined as 3.8.

As to `COc1ccc(COC(=O)N[C@@H](Cc2c[nH]c3ccccc23)C(=O)O)cc1` [Ex.32 (CR462), N-p-methoxy-carbobenzoxy-L-tryptophane], in series [4] (setting [13]), the LD50 was determined as 430 mg/kg. Besides, the ED50 in the series on gastric secretion [5] came to 142 mg/kg; in the series with gastric secretion [6] it was 114 mg/kg; in the series with gastric secretion [7] (Rattus norvegicus, iv, i.v. (Table 2), read-out: Anti-secretive activity ED50 i.v.), 133 mg/kg; in the series on gastric secretion [7] (rat with lig. pylorus, iv (Table 1), read-out: Activity A: anti-secretive activity ED50) it was 146 mg/kg. The “Therapeutic coefficient iv. 2/3” value in the series on gastric secretion [7] (iv) was determined as 3.2.

`O=C(N[C@@H](Cc1c[nH]c2ccccc12)C(=O)O)OCc1ccc(Cl)cc1` [Ex. 1 (CR449), N-p-chloro-carbobenzoxy-L-tryptophane]: the ED50 turned out to be 72 mg/kg in series [1] (setting [14]); 182 mg/kg in series [2] (setting [9]); 121 mg/kg in the series on gastric secretion [3] (2.5 h, oral, 2.5 hrs); 98 mg/kg in the series with gastric secretion [3] (5 h, oral, 5 hrs); 115 mg/kg in the series on gastric secretion [3] (10 h, oral, 10 hrs); 155 mg/kg with gastric secretion [3] (15 h, oral, 15 hrs). The ED50 worked out at 154 mg/kg with gastric secretion [5]; 127 mg/kg in the series with gastric secretion [6]; 131 mg/kg in the series with gastric secretion [7] (setting [11]); 131 mg/kg in the series with gastric secretion [7] (setting [15]); 131 mg/kg with gastric secretion [7] (setting [12]). Also, the “Ratio 3/2” value in series [1] is reported as 1.8. For the same compound, the LD50 was determined as 240 mg/kg in series [4] (setting [13]) and 1410 mg/kg in series [4] (po, oral (Table 2), read-out: DL50 oral). In the series with gastric secretion [5], this compound displayed a Therapeutic coefficient oral of 9.1. Moreover, the “Therapeutic coefficient iv. 2/3” value in the series with gastric secretion [7] (iv) was 1.8.

As to `O=C(N[C@@H](Cc1c[nH]c2ccccc12)C(=O)O)OCc1ccc(Br)cc1` [Ex. 6 (CR451), N-p-bromo-carbobenzoxy-L-tryptophane], the ED50 amounted to 275 mg/kg in series [1] (setting [10]); 335 mg/kg in series [2] (setting [9]); 180 mg/kg with gastric secretion [3] (2.5 h, oral, 2.5 hrs); 148 mg/kg with gastric secretion [3] (5 h, oral, 5 hrs); 405 mg/kg with gastric secretion [3] (15 h, oral, 15 hrs); 133 mg/kg in the series with gastric secretion [5]. Besides, the ED50 was 77 mg/kg in the series with gastric secretion [6], 92.1 mg/kg in the series on gastric secretion [7] (setting [11]) and 99 mg/kg in the series on gastric secretion [7] (setting [12]). The LD50 in series [4] (setting [13]) is 125 mg/kg; in series [4] (iv, iv (Table 2), read-out: DL50 iv) it was 185 mg/kg. Besides, in the series on gastric secretion [3] (oral, 10 hrs, listed as CR 451 (Ex. 6), 600 min), the “Antisecretive activity (dose which reduces the gastric secretion by 50%)” value was found to be 133 mg/kg. In addition, the “Therapeutic coefficient iv. 2/3” value with gastric secretion [7] (iv) was 1.9.

For the compound `Cc1ccc(COC(=O)N[C@@H](Cc2c[nH]c3ccccc23)C(=O)O)cc1` [Ex. 9 (CR454), N-p-methyl-carbobenzoxy-L-tryptophane], the ED50 came out at 120 mg/kg in series [1] (setting [14]); 268 mg/kg with gastric secretion [5]; 125 mg/kg in the series on gastric secretion [6]; 187 mg/kg in the series on gastric secretion [7] (setting [11]); 187 mg/kg in the series on gastric secretion [7] (setting [15]); 166 mg/kg in the series with gastric secretion [7] (setting [12]). For the same compound, in series [1], the “Ratio 3/2” value amounted to 1.6. The LD50 in series [4] (setting [13]) turned out to be 320 mg/kg. For the same compound, the “Therapeutic coefficient iv. 2/3” value in the series with gastric secretion [7] (iv) is 1.9.
